Results: patent US5935959A, “Piperazine derivatives and use as cysteine inhibitors” (Senju Pharmaceutical Co., Ltd., priority 1995, dated 1999)
Read-outs that look alike come from different tables or passages of the source.

Columns and labels:
Format in all cases: biochemical
trypsin = test: Assay of Trypsin-Inhibitory Activity (casein degradation); conditions: read-out: Trypsin 50% Inhibitory concentration (IC50); casein substrate, pH 8.0, 60 min, 30° C.
Experimental: (§1) The activity of papain which is a cysteine protease and of trypsin (Sigma) which is a serine protease was assayed in accordance with the method described in the literature [Anal. Biochem., 208, 387-392, 1993]. Thus, to a solution containing 0.5 mg/ml casein, 50 mM Tris-HCl (pH 8.0), 20 mM dithiothreitol, and 0.2 mM EDTA was added 2.5 μl of dimethyl sulfoxide containing a varying concentration of the test drug as well as 0.03 unit of papain or trypsin to initiate the reaction. The final liquid volume was adjusted to 250 μl. After 60 minutes of reaction at 30° C., 100 μl of the reaction mixture was transferred to another vessel and following addition of 50 μl of purified water and 100 μl of 50% Coumassie brilliant blue solution, the mixture was allowed to stand at room temperature for 15 minutes. The absorbance of the mixture was then measured at 595 nm. Using the value found similarly by adding 2.5 μl of dimethyl sulfoxide not containing the test drug as control and the value found without addition of the enzyme as blank, IC50 was determined in the same manner as above. E64 and leupeptin were used as reference drugs.

μ-calpain = target: T1, μ-calpain (Homo sapiens, UniProt P07384); test: Assay of μ-Calpain-Inhibitory Activity (casein degradation); conditions: casein substrate, pH 7.4, 60 min, 30° C.
T1 construct: purchased Nakarai Tesque
T1 sequence (P07384 1-714): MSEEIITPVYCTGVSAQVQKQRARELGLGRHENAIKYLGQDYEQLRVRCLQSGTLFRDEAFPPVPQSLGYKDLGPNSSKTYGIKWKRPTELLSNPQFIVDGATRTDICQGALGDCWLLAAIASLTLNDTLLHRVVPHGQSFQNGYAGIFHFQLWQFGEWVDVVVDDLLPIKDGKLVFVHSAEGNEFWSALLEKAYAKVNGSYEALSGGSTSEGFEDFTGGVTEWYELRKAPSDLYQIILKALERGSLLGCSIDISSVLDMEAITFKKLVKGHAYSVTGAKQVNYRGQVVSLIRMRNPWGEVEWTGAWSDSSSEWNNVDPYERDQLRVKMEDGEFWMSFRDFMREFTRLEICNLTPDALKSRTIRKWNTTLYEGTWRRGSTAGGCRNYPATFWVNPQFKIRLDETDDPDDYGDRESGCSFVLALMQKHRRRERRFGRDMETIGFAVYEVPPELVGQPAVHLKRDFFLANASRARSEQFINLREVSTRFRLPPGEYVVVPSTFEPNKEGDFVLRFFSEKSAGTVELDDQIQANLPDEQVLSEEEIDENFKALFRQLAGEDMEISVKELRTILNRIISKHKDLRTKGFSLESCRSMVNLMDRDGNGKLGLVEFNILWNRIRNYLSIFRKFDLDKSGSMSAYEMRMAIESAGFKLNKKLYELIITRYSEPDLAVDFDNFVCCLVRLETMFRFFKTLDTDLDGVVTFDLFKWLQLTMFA
T1 sequence (P04632 1-268 partner): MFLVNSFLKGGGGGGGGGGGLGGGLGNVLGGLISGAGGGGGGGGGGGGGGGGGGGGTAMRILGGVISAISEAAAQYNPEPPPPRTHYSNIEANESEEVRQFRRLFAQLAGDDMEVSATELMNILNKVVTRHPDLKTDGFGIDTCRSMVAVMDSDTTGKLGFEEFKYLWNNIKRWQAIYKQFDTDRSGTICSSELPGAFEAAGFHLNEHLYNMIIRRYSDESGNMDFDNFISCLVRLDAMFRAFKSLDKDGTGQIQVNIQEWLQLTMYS
Experimental: The activity of μ-calpain (Nakarai Tesque) was assayed in accordance with the procedure described in the literature [Anal. Biochem., 208, 387-392 (1993)]. Thus, to a solution containing 0.5 mg/ml casein, 50 mM Tris-HCl (pH 7.4), 20 mM dithiothreitol, and 4 mM calcium chloride was added 2.5 μl of a dimethyl sulfoxide solution containing a varying concentration of the test drug as well as 0.03 unit of μ-calpain to initiate the reaction. The final liquid volume was 250 μl. After 60 minutes of reaction at 30° C., 100 μl of the reaction mixture was transferred to another vessel, to which 50 μl of purified water and 100 μl of 50% Coumassie brilliant blue solution were added. The mixture was allowed to stand at room temperature for 15 minutes and the absorbance was measured at 595 nm. As a control, 2.5 μl of dimethyl sulfoxide not containing the test drug was added and the mixture was treated in the same manner as above. The absorbance value thus found was used as the control value. Similarly, the value found by adding 0.2 mM EDTA in lieu of 4 mM aqueous calcium chloride solution was used as the blank value. […] E64 which is a known cysteine protease inhibition compound was used as a reference drug. [formula]

cathepsin L = target: T2, cathepsin L (Homo sapiens, UniProt P07711); test: Assay of Cathepsin L-Inhibitory Activity (Z-Phe-Arg-MCA); conditions: Z-Phe-Arg-MCA 20 μM, pH 5.5, 20 min, 30° C.
T2 construct: purchased Cosmo Bio
T2 sequence (P07711 114-333, species assumed): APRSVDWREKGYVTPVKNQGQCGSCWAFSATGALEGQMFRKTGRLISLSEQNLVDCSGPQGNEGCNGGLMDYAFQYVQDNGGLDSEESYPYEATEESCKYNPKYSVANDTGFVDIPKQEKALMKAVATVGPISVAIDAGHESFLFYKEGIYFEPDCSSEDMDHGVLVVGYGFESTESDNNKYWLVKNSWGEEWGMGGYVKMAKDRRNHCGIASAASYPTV
Experimental: The activity of cathepsinL (Cosmo Bio), a cysteine protease, was assayed by the method described in the literature [Methods in Enzymology, 80, 535-561, 1981]. Thus, to a solution containing 85 mM acetate buffer (pH 5.5), 2 mM dithiothreitol, 1 mM EDTA, 2 μg cathepsin L, and a varying concentration of the test compound was added 20 μM carbobenzoxy-L-phenylalanyl-L-arginine-4-methyl-coumaryl-7-amide (Z-Phe-Arg-MCA) to initiate the reaction at the final liquid volume of 200 μl. After 20 minutes of reaction at 30° C., 20 μl of 1M Tris-HCl (pH 8.0) was added so as to stop the reaction. The amount of liberated 4-methyl-7-aminocoumarin was determined with a fluorospectrometer at an excitation wavelength of 360 nm and a fluorescent emission wavelength of 450 nm. Using the value found without addition of the test drug as control and the value found without addition of the enzyme as blank, IC50 was determined in the same manner as above. E64 was used as a reference drug.

papain = target: T3, papain (Carica papaya, UniProt P00784); test: Assay of Papain-Inhibitory Activity (casein degradation); conditions: casein substrate, pH 8.0, 60 min, 30° C.
T3 construct: purchased Sigma
T3 sequence (P00784 134-345): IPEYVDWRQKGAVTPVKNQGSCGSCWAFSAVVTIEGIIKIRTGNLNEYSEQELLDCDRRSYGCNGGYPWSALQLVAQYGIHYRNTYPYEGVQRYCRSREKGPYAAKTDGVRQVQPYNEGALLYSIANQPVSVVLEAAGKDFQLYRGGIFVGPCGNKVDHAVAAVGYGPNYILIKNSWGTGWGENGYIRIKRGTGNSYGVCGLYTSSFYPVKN
Experimental: as §1

IC50 (trypsin) [µM]	IC50 (μ-calpain) [µM]	Compound	other results
> 3000	17.5	O=C(O)[C@H]1O[C@@H]1C(=O)NCC(=O)N1CCN(c2ccccc2Cl)CC1 [Example 32, (2s,3s)-3-[[[[[4-(2-chlorophenyl)-1-piperazinyl]carbonyl]methyl]amino]carbonyl]oxiranecarboxylic acid]	IC50 (cathepsin L; read-out: Cathepsin L 50% Inhibitory concentration (IC50)): 37.6 µM
> 3000		CC[C@H](C)[C@H](NC(=O)[C@H]1O[C@@H]1C(=O)O)C(=O)N1CCN(c2ccccc2Cl)CC1 [Example 34, (2s,3s)-3-[[[[(1s)-1-[[4-(2-chlorophenyl)-1-piperazinyl]carbonyl]-2-methyl]butyl]amino]carbonyl]oxiranecarboxylic acid]	IC50 (cathepsin L): 0.009 µM
	3.9	CC(=O)NCSC[C@H](NC(=O)[C@H]1O[C@@H]1C(=O)O)C(=O)N1CCN(c2ccccc2Cl)CC1 [Example 38, (2s,3s)-3-[[[[(1s)-1-[[4-(2-chlorophenyl)-1-piperazinyl]carbonyl]-2-acetylaminomethylthio]ethyl]amino]carbonyl]oxiranecarboxylic acid]	
	145	O=C(O)[C@H]1O[C@@H]1C(=O)NC1(C(=O)N2CCN(c3ccc(F)cc3)CC2)CCCC1 [Example 41, (2s,3s)-3-[[[(1s)-1-[[4-(4-fluorophenyl)-1-piperazinyl]carbonyl]-1-cyclopentyl]amino]carbonyl]oxiranecarboxylic acid]	
> 300	0.66	CC(C)C[C@H](NC(=O)[C@H]1O[C@@H]1C(=O)O)C(=O)NCCCCNC(=N)N [Example E-64, reference compound]	IC50 (papain): 0.032 µM; IC50 (cathepsin L): 0.015 µM

The remaining lines, values behind:

Compound	IC50 (trypsin) [µM]	IC50 (μ-calpain) [µM]	other results
O=C(O)[C@H]1O[C@@H]1C(=O)N[C@@H](Cc1ccccc1)C(=O)N1CCN(c2ccc(F)cc2)CC1 [Example 21, (2s,3s)-3-[[[[(1s)-1-[[4-(4-fluorophenyl)-1-piperazinyl]carbonyl]-2-phenyl]ethyl]amino]carbonyl]oxiranecarboxylic acid]	> 3000		
CC(C)C[C@H](NC(=O)[C@H]1O[C@@H]1C(=O)O)C(=O)N1CCN(c2ccc(F)cc2)CC1 [Example 23, (2s,3s)-3-[[[[(1s)-1-[[4-(4-fluorophenyl)-1-piperazinyl]carbonyl]-3-methyl]butyl]amino]carbonyl]oxiranecarboxylic acid]	> 3000		
Cc1ccc(S(=O)(=O)N2CCN(C(=O)[C@H](CC(C)C)NC(=O)[C@H]3O[C@@H]3C(=O)O)CC2)cc1 [Example 26, (2s,3s)-3-[[[[(1s)-1-[[4-(4-methylphenylsulfonyl)-1-piperazinyl]carbonyl]-3-methyl]butyl]amino]carbonyl]oxiranecarboxylic acid]	> 3000		
CC(C)C[C@H](NC(=O)[C@H]1O[C@@H]1C(=O)O)C(=O)N1CCN(c2ccccc2Cl)CC1 [Example 27, (2s,3s)-3-[[[[(1s)-1-[[4-(2-chlorophenyl)-1-piperazinyl]carbonyl]3-methyl]butyl]amino]carbonyl]oxiranecarboxylic acid]	> 3000		
CC(=O)N[C@@H](CC(C)C)C(=O)N[C@@H](CC(C)C)C(=O)N[C@H](C=O)CCCNC(=N)N [Leupeptin, reference compound]	7.4		
